Source: patent US9586986B2, “Substituted 7-deazapurine ribonucleosides for therapeutic uses” (Institute of Organic Chemistry and Biochemistry ASCR, v.v.i., priority 2014, dated 2017)
Read-outs that look alike come from different tables or passages of the source.

Experiments:
Type in all cases: cell-based
MRC-5 = assay: Cytostatic/cytotoxic MTT assay, MRC-5 fibroblasts; conditions: Homo sapiens, read-out: MTT, IC50 MRC-5
Source text: (§1) Unless otherwise stated, all cells were purchased from the […] (ATCC). The CCRF-CEM line is derived from T lymphoblastic leukemia, evincing high chemosenzitivity, K562 represent cells from a […] patient sample with bcr-abl translocation, HCT116 is colorectal tumor cell line and its p53 gene knock-down counterpart (HCT116p53−/−, Horizon Discovery, UK) is a model of human cancers with p53 inactivation frequently associated with poor prognosis, A549 cell line is lung adenocarcinoma. The daunorubicin resistant subline of CCRF-CEM cells (CEM-DNR bulk) and paclitaxel resistant subline K562-TAX were selected in our laboratory by cultivation of maternal cell lines in increasing concentrations of daunorubicine or paclitaxel, respectively. The CEM-DNR cells overexpress mrp-1 and mdr-1 genes, while K562-TAX cells overexpress mdr-1 only. Both proteins belong to the family of ABC transporters and are involved in the primary and/or acquired multidrug resistance phenomenon (ref.: Gottesman, M. M.; Fojo, T.; Bates, S. E. Multidrug resistance in cancer: role of ATP-dependent transporters. Nat. Rev. Cancer. 2002, 2, 48-58. (b) Noskova, V.; Dzubak, P.; Kuzmina, G.; Ludkova, A.; Stehlik, D.; Trojanec, R.; Janostakova, A.; Korinkova, G.; Mihal, V.; Hajduch, M. In vitro chemoresistance profile and expression/function of MDR associated proteins in resistant cell lines derived from CCRF-CEM, K562, A549 and MDA MB 231 parental cells. Neoplasma 2002, 49, 418-425). Non-malignant MRC-5 and BJ cells, derived from normal human fibroblasts, were used as controls. The cells were maintained in Nunc/Corning 80 cm^2 plastic tissue culture flasks and cultured in cell culture medium (DMEM/RPMI 1640 with 5 g/L glucose, 2 mM glutamine, 100 U/mL penicillin, 100 µg/mL streptomycin, 10% fetal calf serum, and NaHCO3). Cell suspensions were prepared and diluted according to the particular cell type and the expected target cell density (25,000-30,000 cells/well based on cell growth characteristics). Cells were added by pipette (80 L) into 96-well microtiter plates. Inoculates were allowed a pre-incubation period of 24 h at 37° C. and 5% CO2 for stabilization. Four-fold dilutions, in 20-L aliquots, of the intended test concentration were added to the microtiter plate walls at time zero. All test compound concentrations were examined in duplicate. Incubation of the cells with the test compounds lasted for 72 h at 37° C., in a 5% CO2 atmosphere at 100% humidity. At the end of the incubation period, the cells were assayed using MTT. Aliquots (10 L) of the MTT stock solution (5 mg/ml) were pipetted into each well and incubated for another 1-4 h. After this incubation period the formazan produced was dissolved by addition of 100 µL/well of 10% aq SDS (pH 5.5), followed by a further incubation at 37° C. overnight. The optical density was measured at 540 nm. The IC50 value, the drug concentration inhibiting the cell growth by 50%, was calculated from appropriate dose-response curves.
(§2) In vitro cytotoxic/cytostatic activity final nucleosides 1-5 was initially evaluated against […] cell lines derived from human solid tumors including lung (A549 cells) and colon (HCT116 and HCT116p53−/−) carcinomas, as well as leukemia cell lines (CCRF-CEM, CEM-DNR, K562 and K562-TAX) and, for comparison, non-malignant BJ and MRC-5 fibroblasts. Concentrations inhibiting the cell growth by 50% (IC50) were determined using a quantitative metabolic staining with 3-(4,5-dimethylthiazol-2-yl)-2,5-diphenyltetrazolium bromide (MTT) (ref.: Denizot, F.; Lang, R. Rapid colorimetric assay for cell growth and survival: Modifications to the tetrazolium dye procedure giving improved sensitivity and reliability. J. Immunol. Meth. 1986, 89, 271-277) following a 3-day treatment.

CEM-DNR-bulk = assay: Cytostatic/cytotoxic MTT assay, CEM-DNR-bulk; conditions: Homo sapiens, 72 h, read-out: MTT, IC50 CEM-DNR-bulk
Source text: as §1, §2
(§3) Multidrug resistance is a major therapeutic problem in cancer chemotherapy. […]

HepG2 = assay: XTT cytotoxicity assay, HepG2; conditions: Homo sapiens, read-out: XTT, IC50 HepG2
Method: HL-60, Hela S3 and HepG2 cell lines (ATCC) were grown in RPMI-1640 or DMEM medium supplemented with 10% fetal calf serum, […] of streptomycin, 200 U/mL of penicillin G and 4 mM glutamine in a humidified atmosphere containing 5% CO2 at 37° C. Sensitivity of these cell lines to the synthesized compounds was assessed with the use of XTT cell proliferation kit II (Roche Diagnostics GmbH, Mannheim, Germany) according to the manufacturer's instructions. Briefly, cells were seeded in a 96-well plate at a density of 10,000 cells per well (90 μL). After 24 h, 10 μL of the tested compounds were added to the culture media at desired concentration range and incubated for 72 h. After that 50 μL of the XTT solution was added (1 mg/mL XTT+0.383 mg/mL N-methyl dibenzopyrazine methyl sulfate). The absorbance was recorded at 495 nm following a 2 h-incubation with the dye. IC50 values were determined by non-linear regression method using GraphPad Prism version 5.00 for Windows (GraphPad Software, La Jolla, Calif., USA).

A549 = assay: Cytostatic/cytotoxic MTT assay, A549; conditions: Homo sapiens, read-out: MTT, IC50 A549
Source text: as §1, §2

BJ = assay: Cytostatic/cytotoxic MTT assay, BJ fibroblasts; conditions: Homo sapiens, 72 h, read-out: MTT, IC50 BJ
Source text: as §1, §2

HCT116 = assay: Cytostatic/cytotoxic MTT assay, HCT116; conditions: Homo sapiens, read-out: MTT, IC50 HCT116
Source text: as §1, §2, §3

[1] = tested on: Huh-7 cells harboring replicon 2A; assay: Cytotoxicity in replicon 2A cells; conditions: HCV subtype 2A replicon
Method: (§4) Compounds were also tested in Huh-7 cells harboring sub-genomic reporter replicons derived from HCV subtypes 1B and 2A (ref.: Stuyver, L. J.; Whitaker, T.; McBrayer, T. R.; Hernandez-Santiago, B. I.; Lostia, S.; Tharnish, P. M.; Ramesh, M.; Chu, C. K.; Jordan, R.; Shi, J. X.; Rachakonda, S.; Watanabe, K. A.; Otto, M. J.; Schinazi, R. F. Antimicrob. Agents Chemother. 2003, 47, 244-254).

[2] = tested on: Huh-7 cells harboring replicon 1B; assay: Cytotoxicity in replicon 1B cells; conditions: HCV subtype 1B replicon
Method: as §4

CCRF-CEM = assay: Cytostatic/cytotoxic MTT assay, CCRF-CEM; conditions: Homo sapiens, read-out: MTT, IC50 CCRF-CEM
Source text: as §1, §2

[3] = MRC5, non-malignant fibroblasts, 72 h

Row | Structure (SMILES) | IC50 (MRC-5; MRC5, 72 h) | IC50 (CEM-DNR-bulk) | IC50 (HepG2; HepG2, 72 h) | IC50 (A549; A549, 72 h) | IC50 (BJ) | IC50 (HCT116; HCT-116, 72 h) | CC50 [1] | CC50 [2] | IC50 (CCRF-CEM; 72 h) | IC50 (MRC-5; [3]) | IC50 (CEM-DNR-bulk; daunorubicin resistant subline) | IC50 (HepG2; HepG2, 72 h incubation) | IC50 (A549; A549, 72 h incubation) | IC50 (BJ; non-malignant fibroblasts) | IC50 (HCT116; HCT-116, 72 h incubation) | IC50 (CCRF-CEM; 72 h incubation)
1 | Cc1ncnc2c1ccn2[C@@H]1O[C@H](CO)[C@@H](O)[C@H]1O [RC5, 4-Methyl-7-(β-D-ribofuranosyl)-7H-pyrrolo[2,3-d]pyrimidine, reference compound] | 0.09 µM | 0.05 µM | 0.06 µM | 0.03 µM | 0.07 µM | 0.03 µM | 0.12 µM | 0.23 µM | 0.01 µM | – | – | – | – | – | – | –
2 | CSc1ncnc2c1c(-c1ccco1)cn2[C@@H]1O[C@H](CO)[C@@H](O)[C@H]1O [Compound 2a, 5-(Furan-2-yl)-4-methylsulfanyl-7-(β-D-ribofuranosyl)-7H-pyrrolo[2,3-d]pyrimidine] | – | – | – | – | – | – | > 44 µM | 38.6 µM | – | 73.9 µM | 0.23 µM | 0.22 µM | 0.05 µM | 0.26 µM | 0.02 µM | 0.05 µM
3 | CSc1ncnc2c1c(-c1cccs1)cn2[C@@H]1O[C@H](CO)[C@@H](O)[C@H]1O [Compound 2c, 4-Methylsulfanyl-7-(β-D-ribofuranosyl)-5-(thiophen-2-yl)-7H-pyrrolo[2,3-d]pyrimidine] | – | – | – | – | – | – | > 44 µM | > 44 µM | – | > 100 µM | > 20 µM | > 20 µM | > 20 µM | 96.9 µM | > 20 µM | > 20 µM
4 | Cc1ncnc2c1c(-c1cc3ccccc3o1)cn2[C@@H]1O[C@H](CO)[C@@H](O)[C@H]1O [Compound 5f, 5-(Benzofuran-2-yl)-4-methyl-7-(β-D-ribofuranosyl)-7H-pyrrolo[2,3-d]pyrimidine] | – | – | – | – | – | – | > 44 µM | > 44 µM | – | 84.4 µM | > 20 µM | > 20 µM | > 20 µM | 93.9 µM | > 20 µM | 17.3 µM
5 | CN(C)c1ncnc2c1c(-c1ccccc1)cn2[C@@H]1O[C@H](CO)[C@@H](O)[C@H]1O [Compound 4e, 4-Dimethylamino-5-phenyl-7-(β-D-ribofuranosyl)-7H-pyrrolo[2,3-d]pyrimidine] | – | – | – | – | – | – | > 44 µM | > 44 µM | – | > 100 µM | > 20 µM | > 20 µM | > 100 µM | > 100 µM | > 20 µM | > 20 µM
6 | CSc1ncnc2c1c(-c1ccccc1)cn2[C@@H]1O[C@H](CO)[C@@H](O)[C@H]1O [Compound 2e, 4-Methylsulfanyl-5-phenyl-7-(β-D-ribofuranosyl)-7H-pyrrolo[2,3-d]pyrimidine] | – | – | – | – | – | – | > 44 µM | > 44 µM | – | > 100 µM | > 20 µM | > 20 µM | > 20 µM | > 100 µM | > 20 µM | > 20 µM
7 | Cc1ncnc2c1c(-c1ccccc1)cn2[C@@H]1O[C@H](CO)[C@@H](O)[C@H]1O [Compound 5e, 4-Methyl-5-phenyl-7-(β-D-ribofuranosyl)-7H-pyrrolo[2,3-d]pyrimidine] | – | – | – | – | – | – | > 44 µM | > 44 µM | – | > 100 µM | > 20 µM | > 20 µM | > 20 µM | > 100 µM | > 100 µM | > 20 µM
8 | CN(C)c1ncnc2c1c(-c1cccs1)cn2[C@@H]1O[C@H](CO)[C@@H](O)[C@H]1O [Compound 4c, 4-Dimethylamino-7-(β-D-ribofuranosyl)-5-(thiophen-2-yl)-7H-pyrrolo[2,3-d]pyrimidine] | – | – | – | – | – | – | > 44 µM | > 44 µM | – | > 100 µM | > 20 µM | > 20 µM | > 20 µM | > 100 µM | > 20 µM | > 20 µM
9 | COc1ncnc2c1c(-c1ccccc1)cn2[C@@H]1O[C@H](CO)[C@@H](O)[C@H]1O [Compound 1e, 4-Methoxy-5-phenyl-7-(β-D-ribofuranosyl)-7H-pyrrolo[2,3-d]pyrimidine] | – | – | – | – | – | – | > 44 µM | > 44 µM | – | > 100 µM | > 20 µM | > 20 µM | > 20 µM | > 100 µM | > 20 µM | > 20 µM
10 | CNc1ncnc2c1c(-c1ccoc1)cn2[C@@H]1O[C@H](CO)[C@@H](O)[C@H]1O [Compound 3b, 5-(Furan-3-yl)-4-methylamino-7-(β-D-ribofuranosyl)-7H-pyrrolo[2,3-d]pyrimidine] | – | – | – | – | – | – | > 44 µM | > 44 µM | – | > 100 µM | > 20 µM | > 20 µM | > 20 µM | 96.3 µM | > 20 µM | > 20 µM
11 | CSc1ncnc2c1c(-c1ccsc1)cn2[C@@H]1O[C@H](CO)[C@@H](O)[C@H]1O [Compound 2d, 4-Methylsulfanyl-7-(β-D-ribofuranosyl)-5-(thiophen-3-yl)-7H-pyrrolo[2,3-d]pyrimidine] | – | – | – | – | – | – | > 44 µM | > 44 µM | – | > 100 µM | > 20 µM | > 15 µM | > 20 µM | 95.8 µM | > 20 µM | > 20 µM
